Where two headings read alike, the source gives them in different places.
Biological target: T1, β-secretase(BACE) (Homo sapiens, UniProt P56817)
T1 construct: purchased Panvera
Assay: BACE FS1% Inhibition Assay
Type: biochemical
Settings: FS1 substrate; for % Inhibition (FS) 10 μM: 10 μM test compound
Summary of the method: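 Percent inhibition at each tested concentration, referenced to enzyme-free blank and vehicle-only positive control. Reaction: compound and BACE (4 μg/mL working stock) mixed 20 min at room temperature before FS1 substrate (300 μg/mL working stock), then 1 h at room temperature.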

[1] = 0.3 μM test compound, read-out: % Inhibition (FS) 0.3 μM
[2] = 1 μM test compound, read-out: % Inhibition (FS) 1 μM
[3] = 3 μM test compound, read-out: % Inhibition (FS) 3 μM
[4] = 0.3 μM test compound, read-out: % Inhibition (FS)
[5] = 1 μM test compound, read-out: % Inhibition (FS)
[6] = 3 μM test compound, read-out: % Inhibition (FS)

T1 sequence (P56817 46-501): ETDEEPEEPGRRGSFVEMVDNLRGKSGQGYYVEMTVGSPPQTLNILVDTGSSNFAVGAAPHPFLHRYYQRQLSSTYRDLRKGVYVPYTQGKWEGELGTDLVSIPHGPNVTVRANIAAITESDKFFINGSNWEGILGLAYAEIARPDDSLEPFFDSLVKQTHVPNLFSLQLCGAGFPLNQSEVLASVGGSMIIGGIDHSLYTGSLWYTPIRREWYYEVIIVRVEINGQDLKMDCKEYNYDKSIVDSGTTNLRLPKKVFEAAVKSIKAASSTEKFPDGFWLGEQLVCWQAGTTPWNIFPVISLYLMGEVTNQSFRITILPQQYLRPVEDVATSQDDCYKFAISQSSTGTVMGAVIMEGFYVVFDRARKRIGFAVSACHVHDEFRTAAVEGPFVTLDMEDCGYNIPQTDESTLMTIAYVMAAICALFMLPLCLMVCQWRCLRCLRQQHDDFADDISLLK

Row | SMILES | % Inhibition (FS) 0.3 μM (0.3 μM test compound) [%] | % Inhibition (FS) 1 μM (1 μM test compound) [%] | % Inhibition (FS) 3 μM (3 μM test compound) [%] | also measured
1 | CC(C)N(C(=O)CC(C1CCCCC1)N1Cc2cc(Oc3ccccc3)ccc2N=C1N)C1CCCCC1 (stereo not shown) [Compound 200] | <30 | <30 | <30 | 
2 | COc1cccc(C(=O)NCCN2Cc3cc(Oc4ccccc4)ccc3N=C2N)c1 [Compound 217] | <30 | <30 | 56 | 
3 | NC1=Nc2ccc(Oc3ccccc3)cc2CN1Cc1cccc(CNC(=O)C2CCCCC2)c1 [Compound 306] | <30 | <30 | 46 | 
4 | CCCC(=O)NCCN1Cc2cc(-c3ccc4ccccc4c3)ccc2N=C1N [Compound 666] |  |  |  | % Inhibition (FS) (0.3 μM test compound): 37%; % Inhibition (FS) (1 μM test compound): <30%; % Inhibition (FS) (3 μM test compound): <30%
5 | NC1=Nc2ccc(-c3ccc(F)cc3)cc2CN1CCNC(=O)C1CCCCC1 [Compound 624] | <30 |  |  | % Inhibition (FS) 1 μM (1 μM test compound, 1 µM): 38%; % Inhibition (FS) 3 μM (3 μM test compound, 3 µM): 78%
6 | CCC(c1cccc(C(=O)N(C)C2CCCCC2)c1)N1Cc2cc(-c3ccccc3OC)ccc2N=C1N (racemic) [Compound 395] | 69 | 107 | 118 | 
7 | COc1ccc(-c2ccc3c(c2)CN(C(CCC(=O)N(C)C2CCCCC2)C2CCCCC2)C(N)=N3)cc1 (racemic) [Compound 226] | <30 | <30 | 54 | 
8 | CCCC=Cc1ccc2c(c1)CN(CCNC(=O)c1ccc(NC(C)=O)cc1)C(N)=N2 [Compound 592] | <30 | <30 | <30 | 
9 | CN(Cc1csc(-c2ccccc2)n1)C(=O)CC[C@@H](C1CCCCC1)N1Cc2cc(-c3ccccc3F)ccc2N=C1N [Compound 722] |  |  |  | % Inhibition (FS) (0.3 μM test compound): 35%; % Inhibition (FS) (1 μM test compound): 35%; % Inhibition (FS) (3 μM test compound): 78%
10 | NC1=Nc2ccc(-c3ccccc3F)cc2CN1CCNC(=O)C1CCCC1 [Compound 643] | 74 | 92 | 110 | 
11 | CN(C(=O)c1cccc(CN2Cc3cc(-c4cccc(C(=O)O)c4)ccc3N=C2N)c1)C1CCCCC1 [Compound 163] | <30 | 33 | <30 | 
12 | CC(=O)Nc1ccc(C(=O)NCCN2Cc3cc(-c4cccc(CO)c4)ccc3N=C2N)cc1 [Compound 593] | <30 | <30 | <30 | 
13 | CCCC(CCC)C(=O)N1CCCC(N2Cc3cc(Oc4ccccc4)ccc3N=C2N)C1 (stereo not shown) [Compound 612] | <30 | 34 | <30 | 
14 | COC1CCCC(C(=O)NCCN2Cc3cc(-c4ccccc4C)ccc3N=C2N)C1 (stereo not shown) [Compound 696] |  |  |  | % Inhibition (FS) (0.3 μM test compound): <30%; % Inhibition (FS) (1 μM test compound): 72%; % Inhibition (FS) (3 μM test compound): 104%
15 | CN(C(=O)c1cccc(CN2Cc3cc(Sc4ccc5ccccc5c4)ccc3N=C2N)c1)C1CCCCC1 [Compound 415] | <30 | <30 | 63 | 
16 | NC1=Nc2ccc(Oc3ccccc3)cc2CN1C(CNC(=O)C1CCCC1)C1CCCCC1 (stereo not shown) [Compound 295] | 79 | 106 | 116 | 
17 | NC1=Nc2ccc(Oc3ccccc3)cc2CN1C1CCN(C(=O)C2CCCCC2)CC1 [Compound 522] |  |  |  | inhibition at 0.3 µM [1]: < 30%; inhibition at 1 µM [2]: < 30%; inhibition at 3 µM [3]: 79%
18 | Cc1ccccc1-c1ccc2c(c1)CN(CCNC(=O)CCC(F)(F)F)C(N)=N2 [Compound 678] |  |  |  | % Inhibition (FS) (0.3 μM test compound): 51%; % Inhibition (FS) (1 μM test compound): 88%; % Inhibition (FS) (3 μM test compound): 99%
19 | CN(C(=O)c1cccc(CN2Cc3cc(Oc4ccccc4-n4cccc4)ccc3N=C2N)c1)C1CCCCC1 [Compound 471] | <30 | <30 | 38 | 
20 | NC1=Nc2ccc(Oc3ccccc3)cc2CN1CCNC(=O)C(c1ccccc1)c1ccccc1 [Compound 207] | 48 | 90 | 108 | 
21 | NC1=Nc2ccc(Oc3ccccc3)cc2CN1C(Cc1ccccc1)c1ocnc1C(=O)NC1CCCCC1 (stereo not shown) [Compound 606, 5-[1-(2-Amino-6-phenoxy-4H-quinazolin-3-yl)-2-phenyl-ethyl]-oxazole-4-carboxylic acid cyclohexylamide] |  |  |  | inhibition at 0.3 µM [1]: < 30%; inhibition at 1 µM [2]: < 30%; inhibition at 3 µM [3]: 56%
22 | CC(=O)c1cccc(-c2ccc3c(c2)CN(CCNC(=O)Cc2ccccc2)C(N)=N3)c1 [Compound 598] | <30 | <30 | 36 | 
23 | NC1=Nc2ccc(Oc3ccccc3)cc2CN1C1CCCCN(C(=O)C23CC4CC(CC(C4)C2)C3)C1 (stereo not shown) [Compound 550] | <30 | <30 | 67 | 

Row | SMILES | % Inhibition (FS) 0.3 μM (0.3 μM test compound) [%] | % Inhibition (FS) 1 μM (1 μM test compound) [%] | % Inhibition (FS) 3 μM (3 μM test compound) [%] | also measured
24 | NC1=Nc2ccc(Oc3ccccc3)cc2CN1CCNC(=O)C1CC1c1ccccc1 (stereo not shown) [Compound 139] |  |  | <30 | % Inhibition (FS) 10 μM: 61%
25 | NC1=Nc2ccc(Oc3ccccc3)cc2CN1C(CNC(=O)C1CCCCC1)Cc1ccc(O)cc1 (stereo not shown) [Compound 616] |  |  | <30 | 
26 | Cc1ccccc1-c1ccc2c(c1)CN(CCNC(=O)CCC(C)C)C(N)=N2 [Compound 661] |  |  |  | % Inhibition (FS) (0.3 μM test compound): 68%; % Inhibition (FS) (1 μM test compound): 98%; % Inhibition (FS) (3 μM test compound): 106%
27 | COc1ccccc1-c1ccc2c(c1)CN([C@@H](CCC(=O)N(C)Cc1cc(C)no1)C1CCCCC1)C(N)=N2 [Compound 718] |  |  |  | % Inhibition (FS) (0.3 μM test compound): <30%; % Inhibition (FS) (1 μM test compound): 30%; % Inhibition (FS) (3 μM test compound): 114%
28 | NC1=Nc2ccc(-c3ccc(F)cc3)cc2CN1CCNC(=O)C1CCCCC1 [Compound 623] | <30 |  |  | % Inhibition (FS) 1 μM (1 μM test compound, 1 µM): <30%; % Inhibition (FS) 3 μM (3 μM test compound, 3 µM): 82%
29 | CC(C)(C)C(=O)Nc1cccc(CN2Cc3cc(Oc4ccccc4)ccc3N=C2N)c1 [Compound 290] | <30 | <30 | <30 | 
30 | NC1=Nc2ccc(Oc3ccccc3)cc2CN1CCNCC1CCCCC1 [Compound 427] | <30 | 26 | 62 | 
31 | CC(=O)c1cccc(-c2ccc3c(c2)CN(CCNC(=O)c2cc(C)oc2C)C(N)=N3)c1 [Compound 588] | <30 | <30 | <30 | 
32 | CCCC(=O)NCCN1Cc2cc(-c3ccncc3)ccc2N=C1N [Compound 570] | <30 | <30 | <30 | 
33 | NC1=Nc2ccc(Oc3ccccc3)cc2CN1C1c2ccccc2-c2c(C(=O)N(C3CCCCC3)C3CCCCC3)cccc21 (stereo not shown) [Compound 147] |  |  | <30 | % Inhibition (FS) 10 μM: 71%
34 | CC(C)N(C(=O)CCN1Cc2cc(Oc3ccccc3)ccc2N=C1N)C(C)C [Compound 181] | <30 | <30 | 32 | 
35 | NC1=Nc2ccc(Oc3ccccc3)cc2CN1Cc1cccc(C(=O)O)c1 [Compound 805] |  |  |  | inhibition at 0.3 µM [4]: < 30%; inhibition at 1 µM [5]: < 30%; inhibition at 3 µM [6]: < 30%
36 | Cc1cccc(Sc2ccc3c(c2)CN(Cc2cccc(C(=O)N(C)C4CCCCC4)c2)C(N)=N3)c1 [Compound 405] | 43 | 106 | 118 | 
37 | NC1=Nc2ccc(Br)cc2CN1CCNC(=O)C1CCCCC1 [Compound 806] |  |  |  | inhibition at 0.3 µM [4]: < 30%; inhibition at 1 µM [5]: < 30%; inhibition at 3 µM [6]: < 30%
38 | CN(C(=O)c1cccc(CN2Cc3cc(Oc4ccc5c(c4)CCCC5)ccc3N=C2N)c1)C1CCCCC1 [Compound 233] | <30 | 32 | 36 | 
39 | CCCC(CCC(=O)NC1CCCCCC1)N1Cc2cc(Oc3ccccc3)ccc2N=C1N (stereo not shown) [Compound 128] |  |  | 97 | % Inhibition (FS) 10 μM: 108%
40 | C=CCc1cccc(OC)c1Oc1ccc2c(c1)CN(Cc1cccc(C(=O)N(C)C3CCCCC3)c1)C(N)=N2 [Compound 481] | <30 | <30 | 32 | 
41 | NC1=Nc2ccc(Oc3ccccc3)cc2CN1[C@H](CNC(=O)C1CCCCC1)C1CCCCC1 [Compound 484] | <30 | <30 | 62 | 
42 | CN(C(=O)CCC(C1CCCCC1)N1Cc2cc(Oc3ccccc3)ccc2N=C1N)C1CCC(c2nn[nH]n2)CC1 (stereo not shown) [Compound 770] |  |  |  | % Inhibition (FS) (0.3 μM test compound): <30%; % Inhibition (FS) (1 μM test compound): <30%; % Inhibition (FS) (3 μM test compound): <30%
43 | NC1=Nc2ccc(-c3cnc4ccccc4c3)cc2CN1CCNC(=O)C1CCC1 [Compound 670] |  |  |  | % Inhibition (FS) (0.3 μM test compound): <30%; % Inhibition (FS) (1 μM test compound): <30%; % Inhibition (FS) (3 μM test compound): 44%
44 | CN(C(=O)c1cccc(CN2Cc3cc(Oc4ccccc4S(C)(=O)=O)ccc3N=C2N)c1)C1CCCCC1 [Compound 472] | <30 | <30 | <30 | 
45 | NC1=Nc2ccc(-c3ccccc3Cl)cc2CN1CCNC(=O)C1CCOCC1 [Compound 689] |  |  |  | % Inhibition (FS) (0.3 μM test compound): 33%; % Inhibition (FS) (1 μM test compound): 82%; % Inhibition (FS) (3 μM test compound): 102%
46 | CC(C)(C)OC(=O)N1CCC(CN2Cc3cc(Oc4ccccc4)ccc3N=C2N)CC1 [Compound 509] | <30 | <30 | 41 | 
